Results taken from ChEMBL document CHEMBL6153102, “Rational Design, Synthesis, and Biological Evaluation of Novel c-Met Degraders for Lung Cancer Therapy” (J Med Chem, 2025).
Activity calls are given as the source filed them. The rule behind the calls is not given here.

Assays:
EBC-1 [1] = assay: Induction of apoptosis in human EBC-1 cells assessed as viable cells at 15 nM incubated for 24 hrs by Annexin V/FITC staining based flow cytometry analysis (reference value: 95.9%); type: functional; conditions: read-out: Activity
[2] = target: T1, Protein cereblon/Hepatocyte growth factor receptor (Homo sapiens, UniProt P08581+Q96SW2); assay: PROTAC activity at c-Met/CRBN in human HCT-116 cells assessed as reduction in c-Met level at 3.9 to 125 nM incubated for 24 hrs in presence of tepotinib by Western blot analysis; type: cell-based; conditions: dose 3.9-125 nM
Target sequence in this assay (P08581 25-1390 limits assumed): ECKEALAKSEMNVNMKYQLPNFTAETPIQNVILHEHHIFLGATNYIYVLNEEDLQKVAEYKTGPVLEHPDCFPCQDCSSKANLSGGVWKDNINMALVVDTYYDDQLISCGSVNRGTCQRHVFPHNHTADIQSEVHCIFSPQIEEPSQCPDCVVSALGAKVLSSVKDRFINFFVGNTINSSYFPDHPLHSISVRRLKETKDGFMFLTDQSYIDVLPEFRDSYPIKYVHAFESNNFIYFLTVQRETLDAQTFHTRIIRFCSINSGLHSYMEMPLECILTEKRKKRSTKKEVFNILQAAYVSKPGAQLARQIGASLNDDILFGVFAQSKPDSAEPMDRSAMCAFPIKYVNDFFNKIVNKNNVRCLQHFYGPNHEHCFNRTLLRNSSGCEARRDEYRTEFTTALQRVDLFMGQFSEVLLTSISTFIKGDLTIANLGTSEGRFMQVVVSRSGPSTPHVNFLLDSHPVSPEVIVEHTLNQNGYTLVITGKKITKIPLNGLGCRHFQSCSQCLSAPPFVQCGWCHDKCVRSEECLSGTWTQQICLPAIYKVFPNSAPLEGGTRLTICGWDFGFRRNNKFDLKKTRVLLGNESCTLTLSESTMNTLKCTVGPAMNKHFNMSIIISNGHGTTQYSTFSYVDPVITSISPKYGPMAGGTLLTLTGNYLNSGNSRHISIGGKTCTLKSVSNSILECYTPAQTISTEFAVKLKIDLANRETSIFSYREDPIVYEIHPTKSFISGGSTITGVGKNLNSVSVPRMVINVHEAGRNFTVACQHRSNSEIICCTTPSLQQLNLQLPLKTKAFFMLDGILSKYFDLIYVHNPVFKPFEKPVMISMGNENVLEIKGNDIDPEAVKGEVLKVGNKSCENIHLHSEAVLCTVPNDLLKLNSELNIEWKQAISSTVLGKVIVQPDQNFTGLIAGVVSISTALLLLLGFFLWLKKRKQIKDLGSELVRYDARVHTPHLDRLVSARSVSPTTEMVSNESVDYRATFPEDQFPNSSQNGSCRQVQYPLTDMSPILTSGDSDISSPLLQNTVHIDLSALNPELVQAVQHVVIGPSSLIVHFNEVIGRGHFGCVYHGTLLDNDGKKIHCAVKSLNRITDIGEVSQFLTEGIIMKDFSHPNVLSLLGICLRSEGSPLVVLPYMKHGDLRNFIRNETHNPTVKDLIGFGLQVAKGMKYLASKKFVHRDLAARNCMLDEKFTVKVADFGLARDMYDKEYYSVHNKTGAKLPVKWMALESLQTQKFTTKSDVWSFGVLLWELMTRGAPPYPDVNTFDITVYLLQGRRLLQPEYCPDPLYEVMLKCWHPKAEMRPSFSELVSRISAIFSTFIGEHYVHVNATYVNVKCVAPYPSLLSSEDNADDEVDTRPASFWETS
Target sequence in this assay (Q96SW2 whole entry partner): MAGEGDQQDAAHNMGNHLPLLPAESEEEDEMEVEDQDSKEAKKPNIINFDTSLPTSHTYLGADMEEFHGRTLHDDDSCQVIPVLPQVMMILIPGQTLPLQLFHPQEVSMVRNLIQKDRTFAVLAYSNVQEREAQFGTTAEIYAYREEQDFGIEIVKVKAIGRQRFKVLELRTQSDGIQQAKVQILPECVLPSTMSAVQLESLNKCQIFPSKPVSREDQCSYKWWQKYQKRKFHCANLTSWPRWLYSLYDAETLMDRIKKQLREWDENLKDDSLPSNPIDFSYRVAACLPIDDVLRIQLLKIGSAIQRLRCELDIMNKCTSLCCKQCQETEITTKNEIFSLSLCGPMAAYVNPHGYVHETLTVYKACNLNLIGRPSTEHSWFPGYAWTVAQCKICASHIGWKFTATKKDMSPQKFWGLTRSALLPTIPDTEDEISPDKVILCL

[3] = target: T1, Protein cereblon/Hepatocyte growth factor receptor; assay: PROTAC activity at c-Met/CRBN in human EBC-1 cells assessed as induction of c-Met degradation at 15.6 nM incubated for 72 hrs by Western blotting analysis relative to control; type: cell-based
Target sequence in this assay (P08581 25-1390 limits assumed): as the sequence (P08581 25-1390 limits assumed) above
Target sequence in this assay (Q96SW2 whole entry partner): as the sequence (Q96SW2 whole entry partner) above

[4] = Tmax in Sprague-Dawley rat at 2 mg/kg, iv measured upto 24 hrs by LC-MS/MS analysis; type: ADME, organism-based; conditions: in vivo
[5] = target: T1, Protein cereblon/Hepatocyte growth factor receptor; assay: PROTAC activity at c-Met/CRBN in human A549 cells assessed as reduction in c-Met level incubated for 24 hrs by Western blotting analysis; type: cell-based
Target sequence in this assay (P08581 whole entry): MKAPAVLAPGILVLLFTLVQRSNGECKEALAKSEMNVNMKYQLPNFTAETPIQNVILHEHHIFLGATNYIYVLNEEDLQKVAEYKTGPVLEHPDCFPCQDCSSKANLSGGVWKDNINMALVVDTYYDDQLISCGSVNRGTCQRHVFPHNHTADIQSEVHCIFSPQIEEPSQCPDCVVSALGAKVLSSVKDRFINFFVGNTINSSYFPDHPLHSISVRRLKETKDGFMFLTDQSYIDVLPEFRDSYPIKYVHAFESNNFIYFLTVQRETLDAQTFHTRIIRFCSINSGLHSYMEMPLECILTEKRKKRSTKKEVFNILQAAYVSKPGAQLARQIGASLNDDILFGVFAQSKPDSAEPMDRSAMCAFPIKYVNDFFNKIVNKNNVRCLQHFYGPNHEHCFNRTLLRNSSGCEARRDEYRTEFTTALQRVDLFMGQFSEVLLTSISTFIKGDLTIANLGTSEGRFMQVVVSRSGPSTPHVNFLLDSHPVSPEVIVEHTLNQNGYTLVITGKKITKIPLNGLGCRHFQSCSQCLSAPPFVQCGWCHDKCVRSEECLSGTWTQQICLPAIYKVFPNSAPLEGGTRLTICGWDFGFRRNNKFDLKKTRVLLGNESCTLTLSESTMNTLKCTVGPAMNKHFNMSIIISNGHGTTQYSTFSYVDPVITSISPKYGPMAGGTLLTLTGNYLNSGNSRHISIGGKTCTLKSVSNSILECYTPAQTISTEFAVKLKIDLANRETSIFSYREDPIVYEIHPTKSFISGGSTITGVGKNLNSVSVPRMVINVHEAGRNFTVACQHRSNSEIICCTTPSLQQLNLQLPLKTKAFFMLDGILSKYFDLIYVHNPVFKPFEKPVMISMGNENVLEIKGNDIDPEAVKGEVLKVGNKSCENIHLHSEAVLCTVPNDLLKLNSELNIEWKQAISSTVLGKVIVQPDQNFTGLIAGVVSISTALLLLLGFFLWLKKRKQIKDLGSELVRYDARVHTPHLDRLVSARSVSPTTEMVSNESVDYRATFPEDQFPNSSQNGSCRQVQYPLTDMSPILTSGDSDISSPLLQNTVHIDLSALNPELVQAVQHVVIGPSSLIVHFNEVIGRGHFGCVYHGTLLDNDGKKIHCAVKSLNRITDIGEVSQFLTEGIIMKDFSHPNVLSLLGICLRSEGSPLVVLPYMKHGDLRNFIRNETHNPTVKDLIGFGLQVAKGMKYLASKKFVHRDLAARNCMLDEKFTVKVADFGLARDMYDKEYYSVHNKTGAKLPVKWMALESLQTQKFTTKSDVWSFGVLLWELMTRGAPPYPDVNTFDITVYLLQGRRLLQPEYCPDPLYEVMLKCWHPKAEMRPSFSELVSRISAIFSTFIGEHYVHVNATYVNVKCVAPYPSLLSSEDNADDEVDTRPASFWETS
Target sequence in this assay (Q96SW2 whole entry): as the sequence (Q96SW2 whole entry partner) above

[6] = Cmax in Sprague-Dawley rat at 5 mg/kg, ip measured upto 24 hrs by LC-MS/MS analysis; type: ADME, organism-based; conditions: in vivo
[7] = Toxicity in BALB/c nude mouse assessed as body weight loss at 10 to 20 mg/kg, ip administered for 7 days; type: organism-based; conditions: in vivo, 168 h, dose 10-20 mg/kg, time 7 day
[8] = target: T1, Protein cereblon/Hepatocyte growth factor receptor; assay: PROTAC activity at c-Met/CRBN in human EBC-1 cells assessed as reduction in FOSL1 level at 15.6 nM incubated for 24 hrs by proteomics analysis; type: cell-based
Target sequence in this assay (P08581 25-1390 limits assumed): as the sequence (P08581 25-1390 limits assumed) above
Target sequence in this assay (Q96SW2 whole entry partner): as the sequence (Q96SW2 whole entry partner) above

EBC-1 [9] = assay: Antitumor activity against human EBC-1 cells xenografted BALB/c nude mouse assessed as reduction in tumor volume at 10 mg/kg, ip administered for 7 days; type: functional; parameters: scale not given: the % may be the effect or the level left; conditions: time 7 day
EBC-1 [10] = assay: Antitumor activity against human EBC-1 cells xenografted BALB/c nude mouse assessed as reduction in Ki67 expression at 10 to 20 mg/kg, ip administered for 7 days by immunohistochemical analysis; type: functional, organism-based; conditions: dose 10-20 mg/kg, time 7.0 day
EBC-1 [11] = assay: Inhibition of colony formation in human EBC-1 cells at 3.9 to 15.6 nM incubated for 7 days by crystal violet staining based analysis; type: functional, cell-based; conditions: dose 3.9-15.6 nM, time 7.0 day
EBC-1 [12] = assay: Induction of apoptosis in human EBC-1 cells assessed as early apoptotic cells at 5 nM incubated for 24 hrs by Annexin V/FITC staining based flow cytometry analysis (reference value: 2.11 %); type: functional
[13] = Volume of distribution at steady state in Sprague-Dawley rat at 2 mg/kg, iv measured upto 24 hrs by LC-MS/MS analysis; type: ADME, organism-based; conditions: in vivo
[14] = target: T1, Protein cereblon/Hepatocyte growth factor receptor; assay: PROTAC activity at c-Met/CRBN in human EBC-1 cells assessed as reduction in UHRF1 level at 15.6 nM incubated for 24 hrs by proteomics analysis; type: cell-based
Target sequence in this assay (P08581 25-1390 limits assumed): as the sequence (P08581 25-1390 limits assumed) above
Target sequence in this assay (Q96SW2 whole entry partner): as the sequence (Q96SW2 whole entry partner) above

[15] = Toxicity in BALB/c nude mouse assessed as liver damage at 10 to 20 mg/kg, ip administered for 7 days by H and E staining based analysis; type: organism-based; conditions: in vivo, 168 h, dose 10-20 mg/kg, time 7 day
[16] = target: T1, Protein cereblon/Hepatocyte growth factor receptor; assay: PROTAC activity at c-Met/CRBN in human EBC-1 cells assessed as reduction in IFRD1 level at 15.6 nM incubated for 24 hrs by proteomics analysis; type: cell-based
Target sequence in this assay (P08581 25-1390 limits assumed): as the sequence (P08581 25-1390 limits assumed) above
Target sequence in this assay (Q96SW2 whole entry partner): as the sequence (Q96SW2 whole entry partner) above

[17] = target: T1, Protein cereblon/Hepatocyte growth factor receptor; assay: PROTAC activity at c-Met/CRBN in human EBC-1 cells assessed as reduction in TFPI2 level at 15.6 nM incubated for 24 hrs by proteomics analysis; type: cell-based
Target sequence in this assay (P08581 25-1390 limits assumed): as the sequence (P08581 25-1390 limits assumed) above
Target sequence in this assay (Q96SW2 whole entry partner): as the sequence (Q96SW2 whole entry partner) above

[18] = AUC (0 to infinity) in Sprague-Dawley rat at 2 mg/kg, iv measured upto 24 hrs by LC-MS/MS analysis; type: ADME, organism-based; conditions: in vivo
[19] = Toxicity in BALB/c nude mouse assessed as heart damage at 10 to 20 mg/kg, ip administered for 7 days by H and E staining based analysis; type: organism-based; conditions: in vivo, 168 h, dose 10-20 mg/kg, time 7 day
[20] = target: T1, Protein cereblon/Hepatocyte growth factor receptor; assay: PROTAC activity at c-Met/CRBN in human EBC-1 cells assessed as reduction in HELLS level at 15.6 nM incubated for 24 hrs by proteomics analysis; type: cell-based
Hs746T = assay: Antiproliferative activity against human Hs746T cells assessed as cell viability incubated for 72 hrs by MTT assay; type: functional, cell-based
EBC-1 [21] = assay: Induction of apoptosis in human EBC-1 cells assessed as early apoptotic cells at 15 nM incubated for 24 hrs by Annexin V/FITC staining based flow cytometry analysis (reference value: 2.11 %); type: functional
HCT-116 = assay: Antiproliferative activity against human HCT-116 cells assessed as cell viability incubated for 72 hrs by MTT assay; type: functional, cell-based; conditions: HCT-116, 72 h
EBC-1 [22] = assay: Induction of apoptosis in human EBC-1 cells assessed as viable cells at 50 nM incubated for 24 hrs by Annexin V/FITC staining based flow cytometry analysis (reference value: 95.9%); type: functional; conditions: read-out: Activity
[23] = Metabolic stability in human liver microsome assessed as half life; type: ADME; conditions: liver microsomes
[24] = target: T1, Protein cereblon/Hepatocyte growth factor receptor; assay: PROTAC activity at c-Met/CRBN in human HCT-116 cells assessed as induction of c-Met degradation at 100 nM incubated for 24 hrs by Western blotting analysis relative to control; type: cell-based
[25] = Tmax in Sprague-Dawley rat at 5 mg/kg, ip measured upto 24 hrs by LC-MS/MS analysis; type: ADME, organism-based; conditions: in vivo
[26] = Toxicity in BALB/c nude mouse assessed as lung damage at 10 to 20 mg/kg, ip administered for 7 days by H and E staining based analysis; type: organism-based; conditions: in vivo, 168 h, dose 10-20 mg/kg, time 7 day
EBC-1 [27] = assay: Induction of apoptosis in human EBC-1 cells assessed as viable cells at 5 nM incubated for 24 hrs by Annexin V/FITC staining based flow cytometry analysis (reference value: 95.9%); type: functional; conditions: read-out: Activity
[28] = Half life in Sprague-Dawley rat at 2 mg/kg, iv measured upto 24 hrs by LC-MS/MS analysis; type: ADME, organism-based; conditions: in vivo
EBC-1 [29] = assay: Antiproliferative activity against human EBC-1 cells assessed as cell viability incubated for 72 hrs by MTT assay; type: functional, cell-based; conditions: EBC-1, 72 h
[30] = target: T1, Protein cereblon/Hepatocyte growth factor receptor; assay: PROTAC activity at c-Met/CRBN in human EBC-1 cells assessed as effect on IKZF2 level at 15.6 nM incubated for 24 hrs by proteomics analysis; type: cell-based
[31] = AUC (0 to infinity) in Sprague-Dawley rat at 5 mg/kg, ip measured upto 24 hrs by LC-MS/MS analysis; type: ADME, organism-based; conditions: in vivo
EBC-1 [32] = assay: Antitumor activity against human EBC-1 cells xenografted in ip dosed BALB/c nude mouse assessed as reduction in tumor growth administered for 7 days; type: functional, organism-based; conditions: dose 10-20 mg/kg, time 7.0 day
EBC-1 [33] = assay: Induction of apoptosis in human EBC-1 cells assessed as necrotic cells at 15 nM incubated for 24 hrs by Annexin V/FITC staining based flow cytometry analysis (reference value: 0.35 %); type: functional
[34] = MRT (0 to infinity) in Sprague-Dawley rat at 2 mg/kg, iv measured upto 24 hrs by LC-MS/MS analysis; type: ADME, organism-based; conditions: in vivo
[35] = target: T1, Protein cereblon/Hepatocyte growth factor receptor; assay: PROTAC activity at c-Met/CRBN in human EBC-1 cells assessed as induction of c-Met degradation at 15.6 nM incubated for 24 hrs by Western blotting analysis relative to control; type: cell-based

Structure (SMILES): COc1ccc(C(=O)N2CCC3(CCN(C(=O)CN4CCC(COc5cnc(-c6cccc(Cn7nc(-c8cccc(C#N)c8)ccc7=O)c6)nc5)CC4)CC3)CC2)cc1N1CCC(=O)NC1=O
- viability at 0.015 µM (EBC-1 [1]): 65%
- Activity [2]: inactive
- Activity [3]: 93.1%
- Tmax [4]: 5.04 min
- DC50 [5]: 0.0418 µM
- Cmax [6]: 0.104 µg/mL
- Activity [7]: Non-toxic
- Activity [8]: Active
- Activity (EBC-1 [9]): 86.14%
- Activity (EBC-1 [10]): inactive
- inhibition (EBC-1 [11]): Active
- Activity (EBC-1 [12]): 29.7%
- Vdss [13]: 36.26 L/kg
- Activity [14]: Active
- Activity [15]: Non-toxic
- Activity [16]: Active
- Activity [17]: Active
- AUC(0-inf) [18]: 0.551 µg·h/mL
- Activity [19]: Non-toxic
- Activity [20]: Active
- IC50 (Hs746T): 0.008 µM
- Activity (EBC-1 [21]): 30.8%
- IC50 (HCT-116): 6.19 µM
- viability at 0.05 µM (EBC-1 [22]): 62%
- half-life [23]: 0.362 h
- Activity [24]: inactive
- Tmax [25]: 2 h
- Activity [26]: Non-toxic
- viability at 0.005 µM (EBC-1 [27]): 66.4%
- t1/2 [28]: 6.9 h
- IC50 (EBC-1 [29]): 0.004 µM
- Activity [30]: No effect
- AUC(0-inf) [31]: 0.678 µg·h/mL
- Activity (EBC-1 [32]): Dose-dependent-effect
- Activity (EBC-1 [33]): 0.58%
- MRT [34]: 3.58 h
- Emax [35]: 96.1%
